Results from ChEMBL document CHEMBL1201862, “PubChem BioAssay data set” (2004).
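Tested at 5 concentrations; 48 h exposure; 96-well plates; endpoints linearly interpolated, else capped at highest concentration. GI50: concentration for 50% inhibition of growth.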 Calls of active or inactive are those of the source. Cut-off read from the data, not from the text of the source: active = GI50 up to about 1.1 µM and inactive = higher.

How the values were obtained:
Experiment in all cases: NCI tumour cell line growth inhibition, 48 h
NCI-H460 = system: NCI-H460
NCI-H23 = system: NCI-H23
HCT-116 = system: HCT-116
HT-29 = system: HT-29
ACHN = system: ACHN
Malme-3M = system: Malme-3M
K562 = system: K562
OVCAR-4 = system: OVCAR-4
Hs-578T = system: Hs-578T
HCC 2998 = system: HCC 2998
CAKI-1 = system: CAKI-1
COLO 205 = system: COLO 205
SF-295 = system: SF-295
NCI/ADR-RES = system: NCI/ADR-RES
NCI-H226 = system: NCI-H226
SK-OV-3 = system: SK-OV-3
A549 = system: A549
HOP-62 = system: HOP-62
A498 = system: A498
786-0 = system: 786-0
M14 = system: M14
HOP-92 = system: HOP-92
T47D = system: T47D
TK-10 = system: TK-10
OVCAR-3 = system: OVCAR-3
OVCAR-5 = system: OVCAR-5
SK-MEL-5 = system: SK-MEL-5
MDA-MB-231 = system: MDA-MB-231
SW-620 = system: SW-620
IGROV-1 = system: IGROV-1
OVCAR-8 = system: OVCAR-8
DU-145 = system: DU-145
EKVX = system: EKVX
U-251 = system: U-251
HCT-15 = system: HCT-15
CCRF-CEM = system: CCRF-CEM
KM12 = system: KM12
RXF 393 = system: RXF 393
MCF7 = system: MCF7
SN12C = system: SN12C
SF-539 = system: SF-539
SF-268 = system: SF-268
UO-31 = system: UO-31
MOLT-4 = system: MOLT-4
LOX IMVI = system: LOX IMVI
SNB-75 = system: SNB-75
HL-60 = system: HL-60
SK-MEL-28 = system: SK-MEL-28
MDA-MB-435 = system: MDA-MB-435
SNB-19 = system: SNB-19
UACC-62 = system: UACC-62
SR = system: SR
NCI-H522 = system: NCI-H522
PC-3 = system: PC-3
MDA-N = system: MDA-N
UACC-257 = system: UACC-257
SK-MEL-2 = system: SK-MEL-2
RPMI-8226 = system: RPMI-8226

COC1(C)OC[C@@]2(C)OC(C)C1(C)C2O[Si](C(C)C)(C(C)C)C(C)C (stereo partly drawn)
GI50 (NCI-H460): 23.7 µM (inactive)
GI50 (NCI-H23): 25.7 µM (inactive)
GI50 (HCT-116): 29.2 µM (inactive)
GI50 (HT-29): 28.7 µM (inactive)
GI50 (ACHN): 25.2 µM (inactive)
GI50 (Malme-3M): 18 µM (inactive)
GI50 (K562): 26.5 µM (inactive)
GI50 (OVCAR-4): 30.3 µM (inactive)
GI50 (Hs-578T): 22.2 µM (inactive)
GI50 (HCC 2998): 20.1 µM (inactive)
GI50 (CAKI-1): 28.6 µM (inactive)
GI50 (COLO 205): 17.8 µM (inactive)
GI50 (SF-295): 19.9 µM (inactive)
GI50 (NCI/ADR-RES): 22.1 µM (inactive)
GI50 (NCI-H226): 19.5 µM (inactive)
GI50 (SK-OV-3): 24.4 µM (inactive)
GI50 (A549): 32.2 µM (inactive)
GI50 (HOP-62): 28.6 µM (inactive)
GI50 (A498): 66.8 µM (inactive)
GI50 (786-0): 43.2 µM (inactive)
GI50 (M14): 37.6 µM (inactive)
GI50 (HOP-92): 24.9 µM (inactive)
GI50 (T47D): 27.6 µM (inactive)
GI50 (TK-10): 25.4 µM (inactive)
GI50 (OVCAR-3): 20.9 µM (inactive)
GI50 (OVCAR-5): 26.6 µM (inactive)
GI50 (SK-MEL-5): 20.9 µM (inactive)
GI50 (MDA-MB-231): 26.4 µM (inactive)
GI50 (SW-620): 33.5 µM (inactive)
GI50 (IGROV-1): 28.7 µM (inactive)
GI50 (OVCAR-8): 36.8 µM (inactive)
GI50 (DU-145): 38.7 µM (inactive)
GI50 (EKVX): 24.9 µM (inactive)
GI50 (U-251): 28.5 µM (inactive)
GI50 (HCT-15): 22.4 µM
GI50 (CCRF-CEM): 25.1 µM (inactive)
GI50 (KM12): 31.8 µM (inactive)
GI50 (RXF 393): 27 µM (inactive)
GI50 (MCF7): 18.4 µM (inactive)
GI50 (SN12C): 23 µM (inactive)
GI50 (SF-539): 33.1 µM (inactive)
GI50 (SF-268): 31.8 µM (inactive)
GI50 (UO-31): 45 µM (inactive)
GI50 (MOLT-4): 21.2 µM (inactive)
GI50 (LOX IMVI): 20.7 µM (inactive)
GI50 (SNB-75): 26.9 µM (inactive)
GI50 (HL-60): 17.5 µM (inactive)
GI50 (SK-MEL-28): 38.4 µM (inactive)
GI50 (MDA-MB-435): 28.7 µM (inactive)
GI50 (SNB-19): 48.9 µM (inactive)
GI50 (UACC-62): 31 µM (inactive)
GI50 (SR): 27.6 µM (inactive)
GI50 (NCI-H522): 27.9 µM (inactive)
GI50 (PC-3): 31.2 µM (inactive)
GI50 (MDA-N): 31.4 µM (inactive)
GI50 (UACC-257): 19.9 µM (inactive)
GI50 (SK-MEL-2): 21 µM (inactive)
GI50 (RPMI-8226): 28.2 µM (inactive)
